Results published in patent publication US20240279202A1 (NURIX THERAPEUTICS, INC., priority 2021, published 2024).
Structures can show the parent of a compound that is named as a salt.

Target: T1, ITK (Mus musculus, UniProt Q03526)
T1 construct: mice were sacrificed and splenocytes were isolated and used to prepare protein lysates; from tissue; host or cells: mouse splenocytes (spleen) after oral dosing
T1 sequence (Q03526 1-625): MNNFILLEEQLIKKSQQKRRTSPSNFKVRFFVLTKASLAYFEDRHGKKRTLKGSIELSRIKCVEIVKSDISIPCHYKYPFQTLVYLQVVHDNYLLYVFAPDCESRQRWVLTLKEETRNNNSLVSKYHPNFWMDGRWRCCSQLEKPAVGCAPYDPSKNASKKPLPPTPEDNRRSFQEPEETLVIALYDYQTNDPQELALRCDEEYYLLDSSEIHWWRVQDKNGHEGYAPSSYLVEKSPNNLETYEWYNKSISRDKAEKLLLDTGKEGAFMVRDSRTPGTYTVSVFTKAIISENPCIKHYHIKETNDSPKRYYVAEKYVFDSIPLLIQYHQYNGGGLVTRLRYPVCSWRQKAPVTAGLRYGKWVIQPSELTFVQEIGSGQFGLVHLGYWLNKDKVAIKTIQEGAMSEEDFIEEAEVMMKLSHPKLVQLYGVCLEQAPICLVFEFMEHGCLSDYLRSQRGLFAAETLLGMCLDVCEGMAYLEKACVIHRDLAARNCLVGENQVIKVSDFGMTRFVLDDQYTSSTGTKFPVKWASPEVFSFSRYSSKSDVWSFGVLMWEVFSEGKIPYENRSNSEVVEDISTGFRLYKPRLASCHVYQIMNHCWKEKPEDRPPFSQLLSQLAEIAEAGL
Test: Mouse PD assay for ITK degradation (Western blot, splenocytes after oral administration)
Format: in vivo
Conditions: for ITK (%) 90 mpk PO, 6 h: percent ITK remaining in mouse splenocytes relative to vehicle
Method: Compounds 1, 3, 7, and 42 were formulated and administered at 90 mg/kg to mice by oral gavage (PO). Blood was collected at defined time points (after 1, 2, and 6 hours) after compounds administration to determine PK parameters. Concentration increased through 6 hours. Six hours later mice were sacrificed and splenocytes were isolated and used to prepare protein lysates. Total protein levels were determined in the lysates using the BCA assay according to standard methods. Equal amounts of protein were then analyzed by Western blot to determine the level of ITK expression in each sample. ITK band intensities were measured using Alpha View software and the percent of ITK remaining in each test animal was determined relative to the mean of ITK levels in vehicle control samples.
After 6 hours, splenocytes cells were harvested. ITK was evaluated by Western blotting.
Compounds 43, 4, 5, 10, 11, 12, 44, 14, 3, and 13 were administered to mice orally. After 6 hours, splenocytes cells were harvested. ITK was evaluated by Western blotting. Media was removed and cell pellets were lysed in 100 uL lysis buffer (RIPA buffer (Fisher, PI89901), cOmplete Mini EDTA-free protease inhibitor (Sigma 11836170001), Protease Inhibitor Cocktail (Sigma, P2714), Phosphatase Inhibitor Cocktail 2 and 3 (Sigma, P5726 and P0044), Benzonase (Sigma, E1014)). Cells were lysed overnight at −20° C. Following thaw, cells were centrifuged for 10 min at 13000 rpm, then transferred to new tube. Protein levels were determined by BCA Assay performed according to manufacturer's protocol (EMID Millipore, cat. no. 71285-3). Samples were combined with (4×) LDS Sample Buffer and (10×) Reducing Agent and H2O to equally load 20 ug protein per lane of a 26-well NuPAGE 4-12% Bis-Tris protein gel (1.0 mm, Thermo cat. no. NP0326). Samples were separated by running gels at constant 150 V in NuPAGE MES SDS Running Buffer. Following electrophoresis, proteins were transferred to nitrocellulose membranes using an iBlot Gel Transfer Device and iBlot Gel Transfer Stacks (Thermo cat. no. IB21001 and IB301001) and transfer method P3 (20V for 7 min). Membranes were blocked for 1 hr in 5% milk solution (TBS (0.2% Tween-20)). Following blocking, membranes were incubated with primary antibody (1:1000 CST ITK (2F12) #2380) overnight at 4° C. with gentle shaking. Blots were washed 2× in TBS (0.2% Tween-20), 30 min per wash. Following washes, blots were incubated in secondary HRP-conjugated antibody (Promega anti-Mouse IgG (H+L) HRP cat. no. W4021), 1:5000 in 5% milk solution (TBS (0.2% Tween-20)), for 1 hr at room temperature with gentle shaking. Blots were washed 2× in TBS (0.2% Tween-20), 30 min per wash. Blots were incubated with 1:1 mix of ECL reagents 1 & 2 (Amersham ECL Western Blotting Detection Reagent, cat. no. RPN2106) for 2 min at room temperature. Bands were visualized using a Protein Simple imager. Blots were then re-probed with a combination of anti-actin antibody (Sigma Monoclonal Mouse Anti-3-Actin (clone AC-15), cat. no. A5441) and secondary H1RP-conjugated antibody (Promega anti-Mouse IgG (H+L) HRP, cat. no. W4021) and similar steps were taken for incubation, wash, detection and visualization steps as above. The data was analyzed using Alpha View software. The densitometric reading for each sample band was normalized to that of the corresponding actin band per lane. Approximate % ITK remaining per sample was calculated as follows: […]
Once % ITK remaining has been calculated for each sample, groups are averaged together to show an means % ITK normalized to actin and relative to control.
Compounds 16, 17, and 18 were administered to mice orally. After 6 hours or 24 hours, splenocytes cells were harvested. ITK was evaluated by Western blotting. Plasma concentrations were determined by LC/MS/MS. Plasma samples were protein precipitated by addition of 100 μl of acetonitrile containing 50 ng/ml of internal standard. The resulting mixture was vortexed and centrifuged at 4000 RPM for 5 minutes. […]

[1] = mice, oral, splenocytes, Western blot

**Q.** Which “ITK degradation in vivo at 6 hours (FIG. 3A, FIG. 4A)” value (“ITK degradation in vivo at 6 hours” below) [1] does the source give for `C[C@@H](C(=O)N(C)c1ccc2cc(-c3n[nH]c4c3CCC(C)(C)C4)[nH]c2c1)N1CCN(CC2CCN(c3ccc(N4CCC(=O)NC4=O)cn3)CC2)CC1` [Compound 11, (S)—N-(2-(6,6-dimethyl-4,5,6,7-tetrahydro-1H-indazol-3-yl)-1H-indol-6-yl)-2-(4-((1-(5-(2,4-dioxotetrahydropyrimidin-1(2H)-yl)pyridin-2-yl)piperidin-4-yl)methyl)piperazin-1-yl)-N-methylpropanamide] here?
**A.** degraded ITK in vivo

**Q.** What about the “ITK (%) 90 mpk PO, 6 h” value of the same molecule?
**A.** 116%

**Q.** Which “ITK (%) 90 mpk PO, 6 h” value does the source give for `CC1(C)CCc2c(-c3cc4ccc(C(=O)N5CCN(CC6CCN(c7ccc(C8CCC(=O)NC8=O)cn7)CC6)CC5)cc4[nH]3)n[nH]c2C1` (centres unmarked) [Compound 47, 3-(6-(4-((4-(2-(6,6-dimethyl-4,5,6,7-tetrahydro-1H-indazol-3-yl)-1H-indole-6-carbonyl)piperazin-1-yl)methyl)piperidin-1-yl)pyridin-3-yl)piperidine-2,6-dione] here?
**A.** 11%

**Q.** With `C[C@@H](C(=O)N(C)c1ccc2cc(-c3n[nH]c4c3C[C@@H]3C(F)(F)[C@]3(C)C4)[nH]c2c1)N1CCN(C[C@H]2CCN(c3ccc4c(c3)C(=O)N(C3CCC(=O)NC3=O)C4=O)C2)CC1` (stereo partly drawn) [Compound 9, (2S)—N-(2-((4aS,5aR)-5,5-difluoro-5a-methyl-1,4,4a,5,5a,6-hexahydrocyclopropa[f]indazol-3-yl)-1H-indol-6-yl)-2-(4-(((3R)-1-(2-(2,6-dioxopiperidin-3-yl)-1,3-dioxoisoindolin-5-yl)pyrrolidin-3-yl)methyl)piperazin-1-yl)-N-methylpropanamide] as the molecule, how does the “ITK (%) 90 mpk PO, 6 h” value read?
**A.** 49.3%

**Q.** For `CN(C(=O)CCC1CCN(c2ccc(C(=O)NC3CCC(=O)NC3=O)nc2)C1)c1ccc2cc(-c3n[nH]c4c3C[C@@H]3C(F)(F)[C@]3(C)C4)[nH]c2c1` (stereo partly drawn) [Compound 69, 5-(3-(3-((2-((4aS,5aR)-5,5-difluoro-5a-methyl-1,4,4a,5,5a,6-hexahydrocyclopropa[f]indazol-3-yl)-1H-indol-6-yl)(methyl)amino)-3-oxopropyl)pyrrolidin-1-yl)-N-(2,6-dioxopiperidin-3-yl)picolinamide], which “ITK (%) 90 mpk PO, 6 h” value is on record?
**A.** 140%

**Q.** With `C[C@@H](C(=O)N(C)c1ccc2cc(-c3n[nH]c4c3C[C@@H]3C(F)(F)[C@]3(C)C4)[nH]c2c1)N1CCN(CC2CCN(c3cccc4c3n(C)c(=O)n4C3CCC(=O)NC3=O)CC2)CC1` (stereo partly drawn) [Compound 65, (2S)—N-(2-((4aS,5aR)-5,5-difluoro-5a-methyl-1,4,4a,5,5a,6-hexahydrocyclopropa[f]indazol-3-yl)-1H-indol-6-yl)-2-(4-((1-(1-(2,6-dioxopiperidin-3-yl)-3-methyl-2-oxo-2,3-dihydro-1H-benzo[d]imidazol-4-yl)piperidin-4-yl)methyl)piperazin-1-yl)-N-methylpropanamide] as the molecule, how does the “ITK (%) 90 mpk PO, 6 h” value read?
**A.** 58%

**Q.** With `CN(C(=O)CC[C@H]1CCN(c2ccc3c(c2)C(=O)N(C2CCC(=O)NC2=O)C3=O)C1)c1ccc2cc(-c3n[nH]c4c3C[C@@H]3C(F)(F)[C@]3(C)C4)[nH]c2c1` (stereo in doubt) [Compound 67, N-(2-((4aS,5aR)-5,5-difluoro-5a-methyl-1,4,4a,5,5a,6-hexahydrocyclopropafindazol-3-yl)-1H-indol-6-yl)-3-((3R)-1-(2-(2,6-dioxopiperidin-3-yl)-1,3-dioxoisoindolin-5-yl)pyrrolidin-3-yl)-N-methylpropanamide] as the molecule, how does the “ITK (%) 90 mpk PO, 6 h” value (90 mg/kg) read?
**A.** 190%

**Q.** How did the “ITK (%) 90 mpk PO, 6 h” value turn out when `C[C@@H](C(=O)N(C)c1ccc2cc(-c3n[nH]c4c3C[C@@H]3C(F)(F)[C@]3(C)C4)[nH]c2c1)N1CCN(CC2CCN(c3ccc(C(=O)NC4CCC(=O)NC4=O)nc3)CC2)CC1` (stereo partly drawn) [Compound 66, 5-(4-((4-((S)-1-((2-((4aS,5aR)-5,5-difluoro-5a-methyl-1,4,4a,5,5a,6-hexahydrocyclopropa[f]indazol-3-yl)-1H-indol-6-yl)(methyl)amino)-1-oxopropan-2-yl)piperazin-1-yl)methyl)piperidin-1-yl)-N-(2,6-dioxopiperidin-3-yl)picolinamide] was run?
**A.** 42.7%

**Q.** With `C[C@@H](C(=O)N(C)c1ccc2cc(-c3n[nH]c4c3C[C@@H]3C(F)(F)[C@]3(C)C4)[nH]c2c1)N1CCN(CC2CCN(c3ccc(N4CCC(=O)NC4=O)cn3)CC2)CC1` [Compound 18, (S)—N-(2-((4aS,5aR)-5,5-difluoro-5a-methyl-1,4,4a,5,5a,6-hexahydrocyclopropa[f]indazol-3-yl)-1H-indol-6-yl)-2-(4-((1-(5-(2,4-dioxotetrahydropyrimidin-1(2H)-yl)pyridin-2-yl)piperidin-4-yl)methyl)piperazin-1-yl)-N-methylpropanamide] as the molecule, how does the “ITK degradation in vivo at 6 hours” value [1] read?
**A.** degraded ITK in vivo

**Q.** And the “ITK degradation in vivo at 24 hours (FIG. 3A, FIG. 4A)” value (mice, oral, splenocytes, Western blot, 24 hours)?
**A.** degraded ITK

**Q.** And the “ITK (%) 90 mpk PO, 6 h” value?
**A.** 14%

**Q.** `C[C@@]12Cc3[nH]nc(-c4cc5ccc(N6CCC7(CCN(Cc8ccc9c(c8)C(=O)N(C8CCC(=O)NC8=O)C9=O)CC7)C6=O)cc5[nH]4)c3C[C@@H]1C2(F)F` (stereo partly drawn) [Compound 15, 5-((2-(2-((4aS,5aR)-5,5-difluoro-5a-methyl-1,4,4a,5,5a,6-hexahydrocyclopropa[f]indazol-3-yl)-1H-indol-6-yl)-1-oxo-2,8-diazaspiro[4.5]decan-8-yl)methyl)-2-(2,6-dioxopiperidin-3-yl)isoindoline-1,3-dione hydrochloride] was tested. Which “ITK (%) 90 mpk PO, 6 h” value did it give?
**A.** 18.3%

**Q.** For `Cn1c(=O)n(C2CCC(=O)NC2=O)c2cccc(N3CCC(CN4CCC5(CC4)CCN(c4ccc6cc(-c7n[nH]c8c7C[C@@H]7C(F)(F)[C@]7(C)C8)[nH]c6c4)C5=O)CC3)c21` (stereo partly drawn) [Compound 16, 3-(4-(4-((2-(2-((4aS,5aR)-5,5-difluoro-5a-methyl-1,4,4a,5,5a,6-hexahydrocyclopropa[f]indazol-3-yl)-1H-indol-6-yl)-1-oxo-2,8-diazaspiro[4.5]decan-8-yl)methyl)piperidin-1-yl)-3-methyl-2-oxo-2,3-dihydro-1H-benzo[d]imidazol-1-yl)piperidine-2,6-dione], which “ITK degradation in vivo at 6 hours” value [1] is on record?
**A.** degraded ITK in vivo

**Q.** And the “ITK (%) 90 mpk PO, 6 h” value?
**A.** 77%
